# Source: ChEMBL document CHEMBL4842348 (J Med Chem, 2021)
# Columns and labels:
# [1] = Oral bioavailability in Beagle dog at 2 mg/kg; type: ADME, organism-based, Canis lupus familiaris; conditions: in vivo
# [2] = Half life in lean NFR-transgenic mouse adipose tissue at 10 mg/kg, po qd treated for 40 days; type: ADME, organism-based; conditions: time 40 day
# [3] = Drug recovery in bile duct cannulated single po dosed rhesus monkey assessed as recovered taurine conjugate in bile relative to total recovery; type: ADME, organism-based, Macaca mulatta; conditions: in vivo
# [4] = Drug recovery in bile duct cannulated single po dosed WH rat assessed as recovered parent compound in feces relative to total recovery; type: ADME, organism-based; conditions: in vivo
# [5] = Terminal half life in rhesus monkey at 0.5 mg/kg, iv; type: ADME, organism-based, Macaca mulatta; conditions: in vivo, read-out: beta t1/2 (converted)
# [6] = AUC (0 to infinitive) in CD1 mouse at 2 mg/kg, po; type: ADME, organism-based; parameters: route oral, time infinity, dose 2 mg/kg; conditions: in vivo
# [7] = Cmax in rhesus monkey at 2 mg/kg, po; type: ADME, organism-based, Macaca mulatta; parameters: route oral, dose 2 mg/kg; conditions: in vivo
# [8] = Terminal half life in WH rat at 1 mg/kg, iv; type: ADME, organism-based; conditions: in vivo, read-out: beta t1/2 (converted)
# [9] = AUC (0 to infinitive) in WH rat at 2 mg/kg, po; type: ADME, organism-based; parameters: route oral, time infinity, dose 2 mg/kg; conditions: in vivo
# [10] = Half life in lean wild type mouse liver at 10 mg/kg, po qd treated for 40 days; type: ADME, organism-based; conditions: time 40 day
# [11] = Drug recovery in bile duct cannulated single po dosed rhesus monkey assessed as recovered total feces radioactivity; type: ADME, organism-based, Macaca mulatta; conditions: in vivo
# [12] = Cmax in high fat diet fed dog at 1 mg/kg, po in Imwitor/Tween; type: ADME, organism-based, Canis lupus familiaris; parameters: route oral, dose 1 mg/kg; conditions: in vivo
# [13] = Half life in lean NFR-transgenic mouse liver at 10 mg/kg, po qd treated for 40 days; type: ADME, organism-based; conditions: time 40 day
# [14] = Volume of distribution at steady state in CD1 mouse at 1 mg/kg, iv and 2 mg/kg, po; type: ADME, organism-based; conditions: in vivo, read-out: Vdss
# [15] = Terminal half life in CD1 mouse at 1 mg/kg, iv; type: ADME, organism-based; conditions: in vivo, read-out: beta t1/2 (converted)
# [16] = Drug recovery in bile duct cannulated single po dosed rhesus monkey assessed as recovered total urine radioactivity; type: ADME, organism-based, Macaca mulatta; conditions: in vivo
# [17] = AUC (0 to infinitive) in Beagle dog at 2 mg/kg, po; type: ADME, organism-based, Canis lupus familiaris; parameters: route oral, time infinity, dose 2 mg/kg; conditions: in vivo
# [18] = Drug recovery in bile duct cannulated single po dosed WH rat assessed as recovered total bile radioactivity; type: ADME, organism-based; conditions: in vivo
# [19] = Bioavailability in CD1 mouse at 1 mg/kg, iv and 2 mg/kg, po; type: ADME, organism-based; conditions: in vivo
# [20] = Drug recovery in bile duct cannulated single po dosed WH rat assessed as recovered parent compound in bile relative to total recovery; type: ADME, organism-based; conditions: in vivo
# [21] = Drug recovery in bile duct cannulated single po dosed rhesus monkey assessed as recovered parent compound in feces relative to total recovery; type: ADME, organism-based, Macaca mulatta; conditions: in vivo
# [22] = Dose normalized AUC in CD1 mouse at 1 mg/kg, iv and 2 mg/kg, po; type: ADME, organism-based; conditions: in vivo
# [23] = Drug recovery in bile duct cannulated single iv dosed WH rat assessed as recovered parent compound in feces relative to total recovery; type: ADME, organism-based; conditions: in vivo
structure (smiles),measurement,setting,value
COc1ncc(-c2ccc(C(=O)O)cc2C)cc1-c1ccc(C(F)(F)F)cc1[C@@H]1CC[C@H]2[C@@H](c3cc(C(F)(F)F)cc(C(F)(F)F)c3)OC(=O)N12,bioavailability,[1],14%
same,half-life,[2],36 h
same,Drug recovery,[3],3%
same,Drug recovery,[4],> 98%
same,half-life,[5],50 h
same,AUC(0-inf),[6],7.9 µM·h
same,Cmax,[7],220 nM
same,half-life,[8],8.1 h
same,AUC(0-inf),[9],9.7 µM·h
same,half-life,[10],1.5 h
same,Drug recovery,[11],60%
same,Cmax,[12],1300 nM
same,half-life,[13],69.6 h
same,Vd,[14],0.95 L/kg
same,half-life,[15],4.4 h
same,Drug recovery,[16],7%
same,AUC(0-inf),[17],13 µM·h
same,Drug recovery,[18],> 99%
same,bioavailability,[19],43%
same,Drug recovery,[20],< 2%
same,Drug recovery,[21],95%
same,AUC/dose,[22],9.2 µM·h
same,Drug recovery,[23],> 98%
